Tested on: Aβ fiber
Experiment: PRD pharmacological assessment of sciatic nerve pain
Assay type: in vivo, human
Text: According to one embodiment, the neuro-stimulator can be integrated with a smartphone, thereby allowing for the detection of mechanism specific nociception via recording and parameterization of the PRD under a multitude of conditions. Parameterization of the PRD curve includes two static measures: a pupillary baseline and peak dilation diameters (dilation amplitude or DA), and at least three dynamic measures: slopes of the ascending and descending portions of the PRD curve representing the dilation velocity (DV) and recovery velocity, as well as the duration of the reflex, and the area under the curve representing pain sensitivity/intensity.
By one embodiment, large-fiber neuropathic pain is transmitted via Aβ nerve fiber type, which is stimulated at 2000 Hz. Neuropathic pain is detected and measured by examining the relationship of the parameters of the PRD to a 2000 Hz stimulus. Small fiber neuropathic pain is transmitted via C-fiber and Aδ fibers, and is often seen with metabolic disorders such as diabetes or chemotherapy induced neuropathic pain. The neuropathic pain index (NPI) integrates the intensity stimulus (mA) relative to the DV, DA, AUC and recovery time. Accordingly, neuropathic pain can be defined with respect to whether the pain is a small fiber based pain or a large fiber based pain. Moreover the NPI provisions for flexibility of monitoring an intervention. […]

NCC1(CC(=O)O)CCCCC1 [Gabapentin]
pain sensitivity (PRD) in sciatic nerve pain (compression of the Aβ fiber, large fiber neuropathic pain (FIG. 8B)): diminishes the pain sensitivity | area under the PRD curve compared with opioid intervention (sciatic nerve pain (FIG. 8B)): substantially smaller

Reference: patent US10555687B2, “Apparatus and method for physiologic and pharmacodynamic assessment and monitoring” (priority 2015, dated 2020)
